Measurements reported in patent US9597417B2, “Compositions and methods to evaluate hepatobiliary/gastrointestinal health, enterohepatic circulation, and drug interactions” (The United States of America as represented by the …, priority 2013, dated 2017).
In brackets after ≈: the same amount, converted by molar mass. Several values for one entry are separate records, joined by “and”; a condition that tells them apart may be missing. Equal values may be shown once. Entries after “also recorded” stand apart in the source; their conditions may differ. Read-outs that look alike come from different tables or passages of the source.

Experiments:
[1] = target: choloylglycine hydrolase from Clostridium perfringens (Clostridium perfringens, UniProt P54965); details: 2 mM compound, 15 U CGH, pH 5.6, 37° C., ±SEM
[2] = In vitro stability in 0.1 M HCl, rat plasma, rat liver s9 fraction and simulated intestinal fluid; details: 37° C.
[3] = target: T1, human Na+/taurocholate cotransporting polypeptide (hNTCP) (Homo sapiens, UniProt Q14973); assay: Inhibition of taurocholate uptake by NTCP in stably transfected NTCP-HEK cells; type: cell-based
T1 sequence (Q14973 1-349): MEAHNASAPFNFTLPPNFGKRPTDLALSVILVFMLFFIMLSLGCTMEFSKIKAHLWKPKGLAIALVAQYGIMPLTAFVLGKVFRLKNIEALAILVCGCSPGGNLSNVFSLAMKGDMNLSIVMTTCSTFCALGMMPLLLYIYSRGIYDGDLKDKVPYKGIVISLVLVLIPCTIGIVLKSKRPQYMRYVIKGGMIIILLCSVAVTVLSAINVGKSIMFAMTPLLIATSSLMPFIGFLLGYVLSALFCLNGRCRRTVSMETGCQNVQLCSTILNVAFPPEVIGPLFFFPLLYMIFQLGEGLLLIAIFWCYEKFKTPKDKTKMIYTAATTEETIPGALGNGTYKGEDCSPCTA

[4] = target: T2, human apical sodium dependent bile acid transporter (hASBT) (Homo sapiens, UniProt Q12908); assay: Inhibition of taurocholate uptake by ASBT in stably transfected ASBT-MDCK cells; type: cell-based
T2 sequence (Q12908 1-348): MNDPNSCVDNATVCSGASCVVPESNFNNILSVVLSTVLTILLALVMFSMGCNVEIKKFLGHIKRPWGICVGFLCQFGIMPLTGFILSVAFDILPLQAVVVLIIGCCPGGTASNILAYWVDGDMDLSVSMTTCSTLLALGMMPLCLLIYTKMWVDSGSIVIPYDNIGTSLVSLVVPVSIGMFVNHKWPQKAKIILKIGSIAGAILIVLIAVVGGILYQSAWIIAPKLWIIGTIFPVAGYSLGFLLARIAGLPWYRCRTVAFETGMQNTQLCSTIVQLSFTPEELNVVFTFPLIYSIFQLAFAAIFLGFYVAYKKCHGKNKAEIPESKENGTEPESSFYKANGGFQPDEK

[5] = Solubility in buffer; type: physicochemical; details: phosphate buffer, aqueous buffer, thermodynamic from solid; pH 6.8, room temperature, overnight, n=3, ±SEM
Method: Five (5) mg of compound was added to silanized centrifuge tubes containing 100 μL phosphate buffer at pH 6.8 (n=3), shaken, and left overnight at room temperature. […] Supernatant was diluted 10,000-fold with 1:1 ACN:water and analyzed by LC/MS/MS.

[6] = Murine gallbladder imaging (mouse 6), 19F MRI and LC/MS/MS; type: in vivo, C57BL/6 mice; details: for concentration at 8.2 h: male, mouse 6, after imaging
[7] = target: T1, human Na+/taurocholate cotransporting polypeptide (hNTCP); assay: Uptake of substrate by NTCP in NTCP-HEK cells; type: cell-based; details: NTCP uptake
[8] = target: T3, hNTCP (sodium-independent passive uptake) (Homo sapiens, UniProt Q14973); assay: Uptake of substrate by NTCP in NTCP-HEK cells; type: cell-based; details: human; NTCP-HEK cells, sodium free buffer; read-out: passive permeability (Pp)
T3 sequence (Q14973 1-349): T1 sequence (Q14973 1-349)

[9] = target: T4, hASBT (sodium-independent passive uptake) (Homo sapiens, UniProt Q12908); assay: Uptake of substrate by ASBT in ASBT-MDCK cells; type: cell-based; details: human; ASBT-MDCK cells, sodium free buffer; read-out: passive permeability (Pp)
T4 sequence (Q12908 1-348): T2 sequence (Q12908 1-348)

[10] = target: T2, human apical sodium dependent bile acid transporter (hASBT); assay: Uptake of substrate by ASBT in ASBT-MDCK cells; type: cell-based; details: ASBT uptake
[11] = Oral disposition characterization: pilot study in mice; details: for concentration at 7 h: male, C57BL/6, mouse, po
[12] = Disposition in Asbt knockout (Slc10a2-/-) and wild-type mice; type: in vivo; details: for gallbladder concentration / concentration at 7 h: n=4, 7 h after gavage 150 mg/kg, ±SEM; for gallbladder concentration: LC/MS/MS; for concentration at 7 h: mouse, oral, 150 mg/kg
Method: Asbt-deficient (Slc10a2-/-) mice were obtained from a colony maintained at the Wake Forest School of Medicine. […] Gallbladder, liver, and plasma samples were collected at 7 h after dosing, and tissues were processed as described above and analyzed by LC/MS/MS.

[13] = target: T1, human Na+/taurocholate cotransporting polypeptide (hNTCP); details: literature / historic data, same cell line; read-out: NTCP Km; cited from earlier work
[14] = substrate: [H][C@@]12C[C@H](O)CC[C@]1(C)[C@@]1([H])C[C@H](O)[C@@]3(C)[C@@]([H])(CC[C@]3([H])C(C)CCC(=O)N(CCNC(=O)C(F)(F)F)CC(=O)O)[C@]1([H])[C@H](O)C2; assay: Uptake of substrate by ASBT in ASBT-MDCK cells; type: cell-based, human; details: other: uptake, 0-200 uM donor, hASBT-MDCK cells, ±SEM; 37.0 °C
[15] = substrate: [H][C@@]12C[C@H](O)CC[C@]1(C)[C@@]1([H])C[C@H](O)[C@@]3(C)[C@@]([H])(CC[C@]3([H])C(C)CCC(=O)N(CCNC(=O)C(F)(F)F)CC(=O)O)[C@]1([H])[C@H](O)C2; assay: Uptake of substrate by NTCP in NTCP-HEK cells; type: cell-based, human; details: other: uptake, 0-200 uM donor, hNTCP-HEK cells, ±SEM; 37.0 °C
[16] = individual mice 1-5, 7 h after oral 150 mg/kg, LC/MS/MS, 150 mg/kg

choloylglycine hydrolase from Clostridium perfringens, sequence (P54965 whole entry, looked up): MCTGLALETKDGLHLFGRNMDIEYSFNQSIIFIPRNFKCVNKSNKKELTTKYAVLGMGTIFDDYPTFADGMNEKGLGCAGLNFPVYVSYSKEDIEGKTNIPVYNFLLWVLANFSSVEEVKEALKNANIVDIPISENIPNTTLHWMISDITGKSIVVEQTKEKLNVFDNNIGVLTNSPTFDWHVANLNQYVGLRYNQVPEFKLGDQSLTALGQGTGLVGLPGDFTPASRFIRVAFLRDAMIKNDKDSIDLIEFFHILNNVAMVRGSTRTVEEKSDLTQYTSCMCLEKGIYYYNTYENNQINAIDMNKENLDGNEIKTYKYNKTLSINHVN

Molecule: CC(CCC(=O)N(CCNC(=O)C(F)(F)F)CC(=O)O)[C@H]1CC[C@H]2[C@@H]3[C@H](O)C[C@@H]4C[C@H](O)CC[C@]4(C)[C@H]3C[C@H](O)[C@]12C (stereo partly shown) [CA-sar-TFMA, Cholic acid-sarcosine-trifluoro-N-methyl-acetamide]
- compound remaining after 4 h [1]: 103.9±2.9%
- stability: concentration at t=4 h vs initial concentration ([2]; 0.1 M HCl, 5 μM): no evidence of degradation; also recorded: not different from initial concentration
- stability: concentration at t=4 h vs initial concentration ([2]; rat plasma, 5 μM): no evidence of degradation; also recorded: not different from initial concentration
- stability: concentration at t=4 h vs initial concentration ([2]; simulated intestinal fluid with pancreatic enzymes (SIF), pH 7.5, 5 μM): no evidence of degradation; also recorded: not different from initial concentration
- Ki [3]: 2.64 ± 0.55 µM
- Ki [4]: 21.5 ± 4 µM
- solubility [5]: 33500 ± 1600 µM (≈ 20.3 mg/mL)
- concentration at 8.2 h ([6]; C57BL/6, liver, oral 150 mg/kg, read-out: liver concentration): 7660 nM
- concentration at 8.2 h ([6]; C57BL/6, plasma, oral 150 mg/kg, read-out: plasma concentration): 870 nM
- LC/MS/MS gallbladder concentration, fold lower than by MRI ([6]; mouse 6): 2.3 fold
- gallbladder concentration by 19F MRI (gallbladder ROI normalized to phantom ROI) ([6]; mouse 6, 6.2-8.2 h after oral gavage of 150 mg/kg): 34.2 mM
- gallbladder concentration by LC/MS/MS ([6]; mouse 6, after imaging and euthanasia, oral 150 mg/kg): 14.8 mM
- normVmax (normalized to taurocholate Vmax on the same occasion) [7]: 0.24
- Papp [8]: 0.043 ×10⁻⁶ cm/s
- Papp [9]: 0.21 ×10⁻⁶ cm/s
- normVmax (normalized to taurocholate Vmax on the same occasion) [10]: 1.50
- Gallbladder Conc. [11, 16]: 16.5 mM (2×) and 25.0 mM and 17.2 mM and 16.9 mM
- Liver Conc. [11, 16]: 20.8 µM and 16.0 µM and 12.9 µM and 9.5 µM and 13.5 µM
- Plasma Conc. [11, 16]: 1490 nM and 1810 nM and 940 nM and 1470 nM
- concentration at 7 h ([11]; liver, 150 mg/kg, Average liver concentration, mean of mice 1-5, 7 h after oral 150 mg/kg, ±SEM): 14500 ± 600 nM
- concentration at 7 h ([11]; plasma, 150 mg/kg, Average plasma concentration, mean of mice 1-5, 7 h after oral 150 mg/kg, ±SEM): 1400 ± 140 nM
- concentration at 7 h ([11]; plasma, 150 mg/kg, Plasma Conc., individual mice 1-5, 7 h after oral 150 mg/kg, LC/MS/MS): 1310 nM
- Average gallbladder concentration ([11]; mean of mice 1-5, 7 h after oral 150 mg/kg, ±SEM): 18.4 ± 1.6 mM
- accumulation in liver and plasma, fold lower than in gallbladder ([11]; on average, 7 h after oral 150 mg/kg): at least 1,000 fold
- gallbladder concentration, fold higher in WT than in knockout mice ([12]; 7 h after gavage 150 mg/kg): 16.1 fold
- gallbladder concentration ([12]; Asbt knockout (Slc10a2-/-) mice): 0.41 ± 0.14 mM
- concentration at 7 h ([12]; liver, Asbt knockout mice, read-out: Liver concentration): 900 ± 30 nM
- concentration at 7 h ([12]; liver, WT mice, read-out: Liver concentration): 4970 ± 1470 nM
- concentration at 7 h ([12]; plasma, Asbt knockout mice, read-out: Plasma concentration): 220 ± 90 nM
- concentration at 7 h ([12]; plasma, WT mice, read-out: Plasma concentration): 3800 ± 4150 nM
- gallbladder concentration ([12]; wild-type (WT) mice): 6.61 ± 0.98 mM

Molecule: C[C@H](CCC(=O)NCCS(=O)(=O)O)[C@H]1CC[C@H]2[C@@H]3[C@H](O)C[C@@H]4C[C@H](O)CC[C@]4(C)[C@H]3C[C@H](O)[C@]12C [taurocholate]
- Km [13]: 5.31 µM

B1: human apical sodium dependent bile acid transporter (hASBT) (Homo sapiens) (protein)
chain: T2 sequence (Q12908 1-348)
- Km [14]: 73.2 ± 7.0 µM

B2: human Na+/taurocholate cotransporting polypeptide (hNTCP) (Homo sapiens) (protein)
chain: T1 sequence (Q14973 1-349)
- Km [15]: 2.19 ± 0.63 µM
